Assay results as given in patent EP4700025A1, “AMIDE COMPOUND, PHARMACEUTICAL COMPOSITION COMPRISING SAME, AND USE THEREOF” (Suzhou Genhouse Bio Co., Ltd., priority 2023, dated 2024).

How the values were obtained:
HCT-116 = assay: CCK8 proliferation inhibition, HCT-116; format: cell-based; details: Homo sapiens, 192 h, CCK8, 8 days after drug treatment
Experimental: (§1) The above normally growing cells were digested with a cell trypsinization solution, centrifuged, counted, and seeded into a 96-well plate at an appropriate cell density (2000 cells/well) at 100 µL/well. The next day after cell seeding, the compounds at different concentrations were added to the wells. Three replicate wells were set for each concentration point, and a corresponding DMSO negative control group was also set. CCK8 solution was added to each well 8 days after drug treatment. The plate was incubated at 37 °C for a period of time (OD450 of the vehicle group reached 1.0 or higher) before the absorbance at 450 nm was read using a microplate reader. The inhibition rates were calculated, and the EC50 values were determined by fitting using the GraphPad Prism 7.0 software. Table 2. EC50 values of compounds at cellular level

SDMA [1] = assay: SDMA Inhibition Assay in HCT-116 cells; format: cell-based; details: Homo sapiens, HCT-116, 96 hours
Experimental: (§2) The next day, the cells were treated with the compounds at different concentrations (with an initial concentration of 10 µM, 5-fold dilution, 9 concentration gradients). After 96 hours, the culture medium was pipetted out and the cells were washed 2 times with 100 µL of PBS. The cells were then fixed with 4% paraformaldehyde and incubated at room temperature for 20 min. The fixative solution was discarded, and the cells were washed with PBS. 150 µL of specialized blocking solution (containing 1% Triton-100) was added to each well for blocking at room temperature for 2 hours, and the plate was washed with PBS to remove excess blocking solution. […] The cells were incubated at 4 °C overnight. The next day, the cells were separately washed 2 times with 1× PBST. […] The cells were incubated at room temperature for 2 hours. The cells were washed 2 times with 1× PBST and 1 time with PBS. Fluorescence signals at 700 nm and 800 nm were separately detected using a Li-COR Odyssey two-color near-infrared laser imager. The inhibition rates were calculated, and the EC50 values were determined by fitting using the GraphPad Prism 7.0 software. Table 3. Inhibition of SDMA by test compounds

[2] = Mouse brain-to-blood and tumor tissue-to-blood drug concentration ratio (PC-9 tumor-bearing mice); format: in vivo, Balb/c-nude female mice; details: 5 mg/kg PO, PC-9 tumor-bearing mice
Experimental: Human lung cancer PC-9 cells were cultured in monolayer in vitro using the 1640 culture medium (HyClone) containing 10% fetal bovine serum (BI) and 1% penicillin and streptomycin (Beyotime) in an incubator at 37 °C with 5% CO2. The cells were digested with trypsin 2 to 3 times weekly for passaging. When the saturation degree of the cells was 80% to 90%, the cells were collected, counted, and inoculated. 5 × 10^6 (0.2 mL, 1:1 gel addition) PC-9 cells were subcutaneously inoculated into the right back of Balb/c-nude female mice, and the mice were used for subsequent PK and tissue distribution experiments after the mean tumor volume reached about 500 mm^3. On the day of administration, mice were weighed for actual body weight and the administration volume was calculated. In each group of 9 mice, the compound was administered by single intravenous injection or oral gavage. Whole blood samples were collected via the orbit at prescribed time points. After the blood sample collection, the samples were immediately transferred to labeled commercial sample tubes containing K2-EDTA (0.85 to 1.15 mg), followed by centrifugation (3200× g, 4 °C, 10 min) and plasma collection. The plasma was transferred to a pre-cooled centrifuge tube, frozen in dry ice, and then stored in an ultra-low temperature freezer at -60 °C or lower until the LC-MS/MS analysis was performed. Tumor and brain tissues were collected after the animals were euthanized using CO2 at prescribed time points, frozen in liquid nitrogen, and stored in an ultra-low temperature freezer at -60 °C or lower until the LC-MS/MS analysis was performed. 20 µL of the plasma sample or brain/tumor tissue homogenate was added to 80 µL of an internal standard solution (a 50 ng/mL solution of propafenone in acetonitrile). The plate was sealed using a film sealer at 165 °C, shaken on a micro oscillator (at the maximum vibration speed) for 10 min, and centrifuged at 4000 rpm for 20 min using a low-speed benchtop centrifuge; 10 µL of the supernatant was transferred and added to 90 µL of acetonitrile. The mixture was vortexed and mixed well, and then the plate was sealed using the film sealer at 165 °C. After the mixture was vortexed and mixed well, 1 µL of the supernatant was subjected to LC-MS/MS analysis.
• Brain-to-blood drug concentration ratio of mice at the same time point = drug concentration in brain tissue/drug concentration in plasma • Tumor tissue-to-blood drug concentration ratio of mice at the same time point = drug concentration in tumor tissue/drug concentration in plasma

SDMA [3] = assay: SDMA Inhibition Assay in HCT-116-MTAP^-/- cells; format: cell-based; details: Homo sapiens, 96 hours
Experimental: as §2

HCT-116-MTAP^-/- = assay: CCK8 proliferation inhibition, HCT-116-MTAP^-/-; format: cell-based; details: Homo sapiens, 192 h; HCT-116-MTAP^-/- (MTAP-deficient); CCK8, 8 days after drug treatment
Experimental: as §1

A549 = assay: CCK8 proliferation inhibition, A549; format: cell-based; details: Homo sapiens, 192 h, CCK8, 8 days after drug treatment
Experimental: as §1

SDMA [4] = assay: SDMA Inhibition Assay in A549 cells; format: cell-based; details: Homo sapiens, A549, 96 hours
Experimental: as §2

| Compound | EC50 (HCT-116) | EC50 (SDMA [3]) | EC50 (HCT-116-MTAP^-/-) | EC50 (A549) | EC50 (SDMA [4]) | EC50 (SDMA [1]) | Brain-to-blood drug concentration ratio ([2]; 1 h) | Drug concentration in blood ([2]; 1 h) | Drug concentration in brain ([2]; 1 h) | Drug concentration in tumor tissue ([2]; 1 h) | Tumor tissue-to-blood drug concentration ratio ([2]; 1 h) | Brain-to-blood drug concentration ratio ([2]; 4 h) | Drug concentration in blood ([2]; 4 h) | Drug concentration in brain ([2]; 4 h) | Drug concentration in tumor tissue ([2]; 4 h) | Tumor tissue-to-blood drug concentration ratio ([2]; 4 h) |
| --- | --- | --- | --- | --- | --- | --- | --- | --- | --- | --- | --- | --- | --- | --- | --- | --- |
| Cn1ncc2c(N)nc3cnc(C(=O)N4CCN(C5CC5)CC4c4ccc5c(c4)OC(F)(F)O5)cc3c21 (racemic) [Example I-112] | > 10000 nM | 2.9 nM | 57 nM |  |  | 285 nM | 1.17 | 220 ng/mL | 258 ng/mL | 346 ng/mL | 1.57 | 3.05 | 10.3 ng/mL | 31.3 ng/mL | 93 ng/mL | 9.05 |
| CC1OCc2c1c(N)nc1cc(F)c(C(=O)N3CCOC[C@@H]3c3ccc4c(c3)OC(F)(F)O4)cc21 (single isomer, unassigned) [I-34 (PEAK2)] | 980 nM | 1.1 nM | 8.3 nM | 43.5 nM | 1.3 nM | 60.7 nM |  |  |  |  |  |  |  |  |  |  |
| CC(C)N(Cc1ccc2c(c1)OC(F)(F)O2)C(=O)c1ccc2nc(N)c3cnn(C)c3c2c1 [Example I-14] | 1200 nM | 5.3 nM | 7.9 nM | 36.9 nM | 2 nM | 374 nM |  |  |  |  |  |  |  |  |  |  |
| Cn1ncc2c(N)nc3cc(F)c(C(=O)N(Cc4ccc5c(c4)OC(F)(F)O5)C[C@@H]4COCCO4)cc3c21 [Example I-27] | 510 nM | 1 nM | 4.2 nM | 24.4 nM | 0.8 nM | 120 nM |  |  |  |  |  |  |  |  |  |  |
| Cn1ncc2c(N)nc3cc(C#N)c(C(=O)N(Cc4ccc5c(c4)OC(F)(F)O5)C4CC4)cc3c21 [Example I-54] | 672 nM | 1.8 nM | 4.2 nM | 28.9 nM | 1.3 nM | 61.7 nM |  |  |  |  |  |  |  |  |  |  |
| Cn1ncc2c(N)nc3cc(F)c(C(=O)N4CCCC[C@@H]4c4ccc5c(c4)OC(F)(F)O5)cc3c21 [Example I-80] | 201 nM | 0.9 nM | 4.7 nM | 12.8 nM | 2.2 nM | 65 nM |  |  |  |  |  |  |  |  |  |  |
| C[C@@H]1COCC(c2ccc3c(c2)OC(F)(F)O3)N1C(=O)c1ccc2nc(N)c3cnn(C)c3c2c1 (some centres unmarked) [Example I-12] | 287 nM | 0.5 nM | 2.7 nM | 8.9 nM | 0.3 nM |  |  |  |  |  |  |  |  |  |  |  |
| Cn1ncc2c(N)nc3cc(C#N)c(C(=O)N4CCOC[C@@H]4c4ccc5c(c4)OC(F)(F)O5)cc3c21 [Example I-53] | 210 nM | 0.7 nM | 5.3 nM | 15.5 nM | 1 nM | 68.7 nM |  |  |  |  |  |  |  |  |  |  |
| Cn1ncc2c(N)nc3cnc(C(=O)N4CCCC[C@@H]4c4ccc5c(c4)OC(F)(F)O5)cc3c21 [Example I-111] | 2170 nM | 1 nM | 15 nM | 77 nM | 1.6 nM | 254 nM |  |  |  |  |  |  |  |  |  |  |
| C[C@@H]1COCC(c2ccc3c(c2)OC(F)(F)O3)N1C(=O)c1cc2c(cc1F)nc(N)c1cnn(C)c12 (some centres unmarked) [Example I-11] |  | 0.4 nM | 0.9 nM | 2.5 nM | 0.3 nM |  |  |  |  |  |  |  |  |  |  |  |
| CC1OCc2c1c(N)nc1cc(F)c(C(=O)N3CCOC[C@@H]3c3ccc4c(c3)OC(F)(F)O4)cc21 (some centres unmarked) [Example I-34] | 1630 nM | 3.1 nM | 9 nM | 70.8 nM | 2.8 nM | 293 nM |  |  |  |  |  |  |  |  |  |  |

More lines, main results first:

| EC50 (HCT-116) | EC50 (SDMA [3]) | EC50 (HCT-116-MTAP^-/-) | EC50 (A549) | EC50 (SDMA [4]) | Compound | EC50 (SDMA [1]) | Brain-to-blood drug concentration ratio ([2]; 1 h) | Drug concentration in blood ([2]; 1 h) | Drug concentration in brain ([2]; 1 h) | Drug concentration in tumor tissue ([2]; 1 h) | Tumor tissue-to-blood drug concentration ratio ([2]; 1 h) | Brain-to-blood drug concentration ratio ([2]; 4 h) | Drug concentration in blood ([2]; 4 h) | Drug concentration in brain ([2]; 4 h) | Drug concentration in tumor tissue ([2]; 4 h) | Tumor tissue-to-blood drug concentration ratio ([2]; 4 h) |
| --- | --- | --- | --- | --- | --- | --- | --- | --- | --- | --- | --- | --- | --- | --- | --- | --- |
| 935 nM | 1.1 nM | 5.6 nM | 18.5 nM | 0.6 nM | Cn1ncc2c(N)nc3cc(F)c(C(=O)N(Cc4ccc5c(c4)OC(F)(F)O5)[C@@H]4CCOC4)cc3c21 [Example I-22] |  |  |  |  |  |  |  |  |  |  |  |
| 389 nM | 2 nM | 2.4 nM | 27.4 nM | 1.9 nM | CCN(Cc1ccc2c(c1)OC(F)(F)O2)C(=O)c1cc2c(cc1F)nc(N)c1cnn(C)c12 [Example I-6] |  |  |  |  |  |  |  |  |  |  |  |
| 1320 nM | 1.4 nM | 5.3 nM | 33 nM | 0.8 nM | Cn1ncc2c(N)nc3cc(F)c(C(=O)N(Cc4ccc5c(c4)OC(F)(F)O5)[C@H]4CCOC4)cc3c21 [Example I-25] | 123 nM |  |  |  |  |  |  |  |  |  |  |
|  | 1.7 nM | 3.5 nM | 10.1 nM | 0.6 nM | COC[C@H](C)N(Cc1ccc2c(c1)OC(F)(F)O2)C(=O)c1cc2c(cc1F)nc(N)c1cnn(C)c12 [Example I-26] |  |  |  |  |  |  |  |  |  |  |  |
| 1210 nM | 2.6 nM | 6.1 nM | 50.6 nM | 2.7 nM | Cn1ncc2c(N)nc3cc(F)c(C(=O)N(Cc4ccc5c(c4)OC(F)(F)O5)C4COC4)cc3c21 [Example I-29] | 292 nM |  |  |  |  |  |  |  |  |  |  |
| 411 nM | 2 nM | 6.4 nM | 38.5 nM | 1.9 nM | Cn1ncc2c(N)nc3cc(F)c(C(=O)N(Cc4ccc5c(c4)OC(F)(F)O5)C[C@H]4COCCO4)cc3c21 [Example I-30] | 125 nM |  |  |  |  |  |  |  |  |  |  |
|  | 1.7 nM | 3.2 nM | 8 nM | 1 nM | COC[C@@H](C)N(Cc1ccc2c(c1)OC(F)(F)O2)C(=O)c1cc2c(cc1F)nc(N)c1cnn(C)c12 [Example I-24] |  |  |  |  |  |  |  |  |  |  |  |
